Measured values from US20240325382A1, “COMPOSITIONS AND METHODS FOR TREATING ANEMIA ASSOCIATED WITH A RIBOSOMAL DISORDER” (Disc Medicine, Inc., priority 2021, published 2024).
“Also recorded” adds a separate entry of the source.

Experiments:
Format in all cases: cell-based
TF-1 shRNA #a cells = assay: Cell number after bitopertin treatment, RPS19 knockdown TF-1 cells; conditions: 4 nM or 37 nM bitopertin, 2 days (day 4 to day 6), doxycycline and GMCSF
Protocol: (§1) Prior to treatment with bitopertin, the TF-1/shRNA #a cells were treated with doxycycline for 4 days to induce RPS19 knockdown by shRNA #a. TF-1/scramble shRNA cells were treated similarly as an experimental control. On day 4, both TF-1/shRNA #a and TF-1/scramble shRNA cells were seeded to the 12-well cell culture plates at a density of 1×10^5 cells per well. Bitopertin was added to the cells in 12-well plates for 48 hours of treatment from day 4 to day 6. […] Each of the TF-1 cells were also treated with doxycycline and GMCSF, which induces shRNA expression and stimulates proliferation, for the entirety of the experiment.
(§2) We investigated if blocking the uptake of heme biosynthesis pathway precursor glycine into cells with bitopertin could restore the balance between heme and globin and reverse the anti-proliferative effects caused by RPS19 knockdown. To test this hypothesis, similarly as above, washed cells were seeded in 6-well plates with doxycycline and GMSCSF to induce shRNA expression and cell proliferation for four days. On day 4, 1×10^5 cells were seeded into a 12-well plate with 4 nM or 37 nM bitopertin. After two days of treatment with bitopertin, we enumerated cell numbers.

[1] = test system: TF-1 cells expressing scrambled shRNA; assay: Cell number after bitopertin treatment, scrambled shRNA TF-1 cells; conditions: 4 nM or 37 nM bitopertin, 2 days (day 4 to day 6), doxycycline and GMCSF
Protocol: as §1, §2

TF-1/shRNA #b cells = assay: CTG cell viability after bitopertin treatment, RPS19 knockdown TF-1 cells; conditions: varying doses, 1 μM top concentration, 9 points 3-fold dilutions, 2 days, doxycycline and GMCSF
Protocol: The cells were treated with (1) doxycycline during the entire cell culture period to induce shRNA expression; (2) GMCSF during the entire 6 days of cell culture period to induce proliferation. At day 4 of cell culture, the TF-1 cells were seeded to the 96-well cell culture plates at a density of 1×10^4 cells per well, and were treated with varying doses of bitopertin for two days of the culture period, from day 4 to day 6.
Further, in a similar setup, an equal number of cells were seeded on to 96-well plates after four days of doxycycline treatment and incubated with varying doses of bitopertin (1 μM top concentration, 9 points 3-fold dilutions) for two days and on day 6, we performed a CTG assay to measure the cell viability. The cells were cultured in the presence of GMCSF during the entire cell culture period.

TF-1 cells [2] = assay: Cell viability of TF-1 stable lines by CellTiter-Glo (CTG); conditions: GMCSF and EPO stimulus, doxycycline, 96-well plates
Protocol: Similarly, the cell growth capability of TF-1 stable lines shRNA #a, shRNA #b, and scrambled shRNA was assessed in vitro by cell viability assay. As described above, washed cells were seeded into 96 well plates in equal numbers in media containing either GMCSF or EPO (FIG. 4A and FIG. 4B) on separate plates for each day of readout. Cell viability was measured using the CellTiter-Glo® (CTG), which determines the number of viable cells in culture by quantifying ATP, which indicates the presence of metabolically active cells.

TF-1 cells [3] = assay: Cell growth of TF-1 stable lines by cell counting with trypan blue staining; conditions: 6 days of culture with doxycycline; for growth inhibition (cell count): EPO; for effect on cell proliferation (cell count) compared to scrambled shRNA: GMCSF (2 ng/ml)
From the text: RPS19 knockdown in TF-1 cells has been previously reported to adversely affect the growth of erythroid cells due to an imbalance in heme and globin synthesis. See, e.g., Yang, Z. et al. Sci Transl Med 8, 338ra67 (2016). The TF-1 cell line is a cell line of immature erythroid origin that requires cytokines such as granulocyte-macrophage colony-stimulating factor (GMCSF) or erythropoietin (EPO) for its growth. The cell growth capability of TF-1 stable lines shRNA #a, shRNA #b, and scrambled shRNA were assessed in vitro by cell counting after 6-days of cell culture in the presence of doxycycline induction. Cells were washed from regular growth media and seeded in equal numbers into media containing either GMCSF (2 ng/ml), a growth factor that induces proliferation of the TF-1 cells, or EPO (Ing/ml), a hormone that induces growth of the TF-1 cells and induces their differentiation along the erythroid lineage. Cell growth was monitored by counting cells with trypan blue staining (FIG. 3A and FIG. 3B).

RPS19 protein = RPS19 protein levels by western blot in TF-1 stable cell lines; conditions: TF-1 stable line, doxycycline-induced shRNA, by day 5
Protocol: To generate an RPS19 deficient Diamond blackfan anemia (DBA) model, a TF-1 erythroid cell line was transduced with lentivirus encoding shRNAs targeting RPS19 (referred to as “shRNA #a” and “shRNA #b”) and a scrambled shRNA control (referred to as “Scramble shRNA” or “Scrambled”) (See Table 1). Stable cell lines were generated by selecting the infected cells with puromycin (1 ug/ml) for three weeks. The shRNA expression is doxycycline inducible. In the stable cell lines, RPS19 mRNA expression was measured using qRT-PCR after two (FIG. 1A) and four (FIG. 1B) days of doxycycline treatment. […] Further, RPS19 protein levels were decreased by more than 70% by shRNA #b by day 5 (FIG. 2A and FIG. 2B). The antibodies used in determining the RPS19 protein levels are described in Table 1.

C[C@H](Oc1ccc(S(C)(=O)=O)cc1C(=O)N1CCN(c2ncc(C(F)(F)F)cc2F)CC1)C(F)(F)F [bitopertin]
effect on cell number of RPS19 knockdown cells (TF-1 shRNA #a cells): reverses the anti-proliferative effects; also recorded: protective effect | effect on cell number of scrambled shRNA cells [1]: did not affect | effect on cell viability (CTG) compared to TF-1/scrambled shRNA cells (TF-1/shRNA #b cells): dose-dependent bitopertin protective effect

shRNA #a: lentivirus-encoded, doxycycline-inducible shRNA targeting RPS19, GAGATCTGGACAGAATCGC (SEQ ID NO: 1)
cell growth inhibition (CTG cell viability) compared to scrambled shRNA (TF-1 cells [2]): moderate cell growth inhibitory effects | growth inhibition (cell count) (TF-1 cells [3]): dose-dependent growth inhibition | effect on cell proliferation (cell count) compared to scrambled shRNA (TF-1 cells [3]): moderate effect

shRNA #b: lentivirus-encoded, doxycycline-inducible shRNA targeting RPS19, GCTTGCTCCCTACGATGAGAA (SEQ ID NO: 2)
cell growth inhibition (CTG cell viability) compared to scrambled shRNA (TF-1 cells [2]): high degree inhibition in cell growth | growth inhibition (cell count) (TF-1 cells [3]): dose-dependent growth inhibition | effect on cell proliferation (cell count) compared to scrambled shRNA (TF-1 cells [3]): more substantial effect | decrease of RPS19 protein levels (RPS19 protein): more than 70%
